Source: US11826396B2, “Nutriprotective diet” (FÉDÉRATION DES PRODUCTEURS ACÉRICOLES DU QUÉBEC, priority 2011, dated 2023)

Assay: diphenylpicrylhydrazyl (DPPH) radical scavenging assay
Assay type: biochemical
Settings: read-out: antioxidant activity, IC50

IC50 [mM]	Structure (SMILES)
0.058	O=C1O[C@H]([C@@H](O)CO)C(O)=C1O [vitamin C, Ascorbic acid]
2.65	Cc1cc(C(C)(C)C)c(O)c(C(C)(C)C)c1 [butylatedhydroxytoluene]
